Reference: the kinase profiling compilation of Christmann-Franck et al. (2016)

How the values were obtained:
Test in all cases: radiometric filter-binding kinase assay, Kinase HotSpot
Settings in all cases: compound 0.5 µM; ATP 10 µM
ABL1 (human) = ABL1 (human) (UniProt P00519)
ADRBK2 (human) = ADRBK2 (human) (UniProt P35626)
CAMK2D (human) = CAMK2D (human) (UniProt Q13557)
CLK1 (human) = CLK1 (human) (UniProt P49759)
CLK3 (human) = CLK3 (human) (UniProt P49761)
EPHA8 (human) = EPHA8 (human) (UniProt P29322)
EPHB1 (human) = EPHB1 (human) (UniProt P54762)
Chain of EPHB1 (human) (P54762 whole entry, looked up): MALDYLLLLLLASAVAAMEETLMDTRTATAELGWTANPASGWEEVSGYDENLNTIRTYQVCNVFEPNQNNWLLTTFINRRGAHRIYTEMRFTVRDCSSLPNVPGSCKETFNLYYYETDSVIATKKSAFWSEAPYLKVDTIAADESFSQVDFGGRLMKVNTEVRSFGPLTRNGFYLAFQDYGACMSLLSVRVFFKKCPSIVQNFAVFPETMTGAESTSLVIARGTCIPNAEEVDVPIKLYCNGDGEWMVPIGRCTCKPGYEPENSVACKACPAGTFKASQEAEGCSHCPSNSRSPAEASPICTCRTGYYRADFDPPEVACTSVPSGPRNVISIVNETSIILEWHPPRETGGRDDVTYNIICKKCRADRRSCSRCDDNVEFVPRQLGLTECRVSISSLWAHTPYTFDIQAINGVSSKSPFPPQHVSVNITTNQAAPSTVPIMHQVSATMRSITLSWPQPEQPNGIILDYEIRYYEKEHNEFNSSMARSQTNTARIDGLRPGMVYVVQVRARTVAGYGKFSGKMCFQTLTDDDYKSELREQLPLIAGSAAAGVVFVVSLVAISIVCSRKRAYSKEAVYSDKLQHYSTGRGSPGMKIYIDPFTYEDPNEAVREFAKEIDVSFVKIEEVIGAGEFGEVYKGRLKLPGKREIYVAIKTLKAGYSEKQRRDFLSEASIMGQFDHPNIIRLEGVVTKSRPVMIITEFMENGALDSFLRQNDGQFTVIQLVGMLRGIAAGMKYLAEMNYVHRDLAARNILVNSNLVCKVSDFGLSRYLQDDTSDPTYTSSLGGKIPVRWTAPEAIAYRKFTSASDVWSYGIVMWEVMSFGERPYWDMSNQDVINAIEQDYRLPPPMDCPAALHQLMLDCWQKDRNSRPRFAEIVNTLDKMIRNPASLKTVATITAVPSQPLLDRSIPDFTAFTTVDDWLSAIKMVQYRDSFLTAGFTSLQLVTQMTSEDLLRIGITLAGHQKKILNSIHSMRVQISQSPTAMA

EPHB2 (human) = EPHB2 (human) (UniProt P29323)
ERBB2 (human) = ERBB2 (human) (UniProt P04626)
GRK5 (human) = GRK5 (human) (UniProt P34947)
GRK7 (human) = GRK7 (human) (UniProt Q8WTQ7)
INSRR (human) = INSRR (human) (UniProt P14616)
ITK (human) = ITK (human) (UniProt Q08881)
LCK (human) = LCK (human) (UniProt P06239)
Chain of LCK (human) (P06239 whole entry, looked up): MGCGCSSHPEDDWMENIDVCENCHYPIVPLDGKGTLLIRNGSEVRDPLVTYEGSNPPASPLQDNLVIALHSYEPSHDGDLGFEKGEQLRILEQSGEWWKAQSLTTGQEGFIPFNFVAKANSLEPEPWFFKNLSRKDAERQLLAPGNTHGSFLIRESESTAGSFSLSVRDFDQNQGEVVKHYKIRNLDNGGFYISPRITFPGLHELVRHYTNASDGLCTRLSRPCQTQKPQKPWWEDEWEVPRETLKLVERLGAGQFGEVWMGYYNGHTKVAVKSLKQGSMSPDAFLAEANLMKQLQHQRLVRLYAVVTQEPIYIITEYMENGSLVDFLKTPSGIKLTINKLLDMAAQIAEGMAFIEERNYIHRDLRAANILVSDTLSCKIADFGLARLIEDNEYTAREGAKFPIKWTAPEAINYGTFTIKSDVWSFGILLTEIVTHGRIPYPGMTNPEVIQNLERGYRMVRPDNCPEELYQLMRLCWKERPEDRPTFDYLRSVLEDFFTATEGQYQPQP

LTK (human) = LTK (human) (UniProt P29376)
MAP2K1 (human) = MAP2K1 (human) (UniProt Q02750)
MAPKAPK5 (human) = MAPKAPK5 (human) (UniProt Q8IW41)
Chain of MAPKAPK5 (human) (Q8IW41 whole entry, looked up): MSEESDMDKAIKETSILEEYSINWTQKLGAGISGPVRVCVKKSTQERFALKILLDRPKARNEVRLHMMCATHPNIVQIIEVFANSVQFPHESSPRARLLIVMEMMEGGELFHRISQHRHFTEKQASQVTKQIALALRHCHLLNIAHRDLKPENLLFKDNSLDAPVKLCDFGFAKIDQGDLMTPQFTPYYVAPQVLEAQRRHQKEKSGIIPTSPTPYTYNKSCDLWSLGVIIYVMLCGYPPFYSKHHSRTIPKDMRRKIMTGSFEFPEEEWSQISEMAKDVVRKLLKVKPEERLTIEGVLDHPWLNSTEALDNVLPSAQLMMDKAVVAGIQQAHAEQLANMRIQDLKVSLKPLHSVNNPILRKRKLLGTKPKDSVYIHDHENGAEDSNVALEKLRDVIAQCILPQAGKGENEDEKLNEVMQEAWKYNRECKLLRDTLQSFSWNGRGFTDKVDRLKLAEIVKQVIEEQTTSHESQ

MARK1 (human) = MARK1 (human) (UniProt Q9P0L2)
MST1R (human) = MST1R (human) (UniProt Q04912)
NEK11 (human) = NEK11 (human) (UniProt Q8NG66)
NEK3 (human) = NEK3 (human) (UniProt P51956)
NEK7 (human) = NEK7 (human) (UniProt Q8TDX7)
NTRK1 (human) = NTRK1 (human) (UniProt P04629)
PAK4 (human) = PAK4 (human) (UniProt O96013)
PASK (human) = PASK (human) (UniProt Q96RG2)
PDPK1 (human) = PDPK1 (human) (UniProt O15530)
Chain of PDPK1 (human) (O15530 whole entry, looked up): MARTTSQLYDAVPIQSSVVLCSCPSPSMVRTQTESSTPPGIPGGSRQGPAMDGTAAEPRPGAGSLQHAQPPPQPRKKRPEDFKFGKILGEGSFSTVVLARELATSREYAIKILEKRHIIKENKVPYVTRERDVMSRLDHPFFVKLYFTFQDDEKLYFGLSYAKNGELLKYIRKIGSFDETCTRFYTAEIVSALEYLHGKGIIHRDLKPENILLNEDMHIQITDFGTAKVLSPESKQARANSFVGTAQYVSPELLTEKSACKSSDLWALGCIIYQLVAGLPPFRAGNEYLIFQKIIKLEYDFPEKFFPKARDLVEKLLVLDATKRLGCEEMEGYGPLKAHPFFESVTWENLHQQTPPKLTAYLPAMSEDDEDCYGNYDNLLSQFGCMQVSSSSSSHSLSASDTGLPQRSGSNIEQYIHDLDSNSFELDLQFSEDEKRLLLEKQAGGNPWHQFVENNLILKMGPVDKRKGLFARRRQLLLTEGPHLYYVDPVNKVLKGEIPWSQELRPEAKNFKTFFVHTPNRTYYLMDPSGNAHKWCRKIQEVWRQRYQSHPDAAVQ

PHKG1 (human) = PHKG1 (human) (UniProt Q16816)
PLK2 (human) = PLK2 (human) (UniProt Q9NYY3)
PRKCB2 (human) = PRKCB2 (human) (UniProt P05771)
PRKD1 (human) = PRKD1 (human) (UniProt Q15139)
PRKD2 (human) = PRKD2 (human) (UniProt Q9BZL6)
PRKX (human) = PRKX (human) (UniProt P51817)
ROCK2 (human) = ROCK2 (human) (UniProt O75116)
RPS6KA3 KD1 KD2 (human) = RPS6KA3 KD1 KD2 (human) (UniProt P51812)
Chain of RPS6KA3 KD1 KD2 (human) (P51812 whole entry, looked up): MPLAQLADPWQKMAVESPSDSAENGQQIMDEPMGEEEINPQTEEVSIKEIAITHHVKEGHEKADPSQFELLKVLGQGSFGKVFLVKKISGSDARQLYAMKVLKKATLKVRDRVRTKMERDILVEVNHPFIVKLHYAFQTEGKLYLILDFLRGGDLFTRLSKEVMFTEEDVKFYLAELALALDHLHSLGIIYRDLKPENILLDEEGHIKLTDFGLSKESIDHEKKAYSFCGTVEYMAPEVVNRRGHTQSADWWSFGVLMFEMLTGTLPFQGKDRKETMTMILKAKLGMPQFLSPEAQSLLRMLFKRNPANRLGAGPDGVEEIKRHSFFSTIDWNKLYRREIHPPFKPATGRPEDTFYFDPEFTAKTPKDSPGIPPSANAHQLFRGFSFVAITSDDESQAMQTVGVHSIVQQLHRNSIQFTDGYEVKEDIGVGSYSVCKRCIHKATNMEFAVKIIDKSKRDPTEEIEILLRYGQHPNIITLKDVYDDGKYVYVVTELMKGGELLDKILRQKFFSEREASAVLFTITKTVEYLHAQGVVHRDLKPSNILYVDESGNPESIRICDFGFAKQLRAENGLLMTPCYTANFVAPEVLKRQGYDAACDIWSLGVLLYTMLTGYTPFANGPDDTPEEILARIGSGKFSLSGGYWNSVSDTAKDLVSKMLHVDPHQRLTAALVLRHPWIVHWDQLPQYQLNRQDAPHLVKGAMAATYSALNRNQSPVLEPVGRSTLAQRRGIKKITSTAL

RPS6KB1 (human) = RPS6KB1 (human) (UniProt P23443)
Chain of RPS6KB1 (human) (P23443 whole entry, looked up): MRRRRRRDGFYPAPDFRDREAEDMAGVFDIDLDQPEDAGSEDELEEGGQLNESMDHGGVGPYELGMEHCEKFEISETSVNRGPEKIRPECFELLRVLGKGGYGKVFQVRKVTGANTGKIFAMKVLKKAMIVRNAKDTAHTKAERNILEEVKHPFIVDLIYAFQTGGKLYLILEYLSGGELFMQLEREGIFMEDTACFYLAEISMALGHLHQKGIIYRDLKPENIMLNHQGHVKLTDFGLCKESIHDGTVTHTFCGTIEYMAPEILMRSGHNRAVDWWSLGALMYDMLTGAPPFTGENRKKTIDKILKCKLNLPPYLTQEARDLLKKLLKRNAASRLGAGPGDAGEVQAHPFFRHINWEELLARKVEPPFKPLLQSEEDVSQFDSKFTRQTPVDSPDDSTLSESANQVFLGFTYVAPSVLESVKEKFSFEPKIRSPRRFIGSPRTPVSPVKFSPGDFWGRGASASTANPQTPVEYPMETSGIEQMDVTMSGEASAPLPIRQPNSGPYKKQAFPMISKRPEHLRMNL

SGK3 (human) = SGK3 (human) (UniProt Q96BR1)
Chain of SGK3 (human) (Q96BR1 whole entry, looked up): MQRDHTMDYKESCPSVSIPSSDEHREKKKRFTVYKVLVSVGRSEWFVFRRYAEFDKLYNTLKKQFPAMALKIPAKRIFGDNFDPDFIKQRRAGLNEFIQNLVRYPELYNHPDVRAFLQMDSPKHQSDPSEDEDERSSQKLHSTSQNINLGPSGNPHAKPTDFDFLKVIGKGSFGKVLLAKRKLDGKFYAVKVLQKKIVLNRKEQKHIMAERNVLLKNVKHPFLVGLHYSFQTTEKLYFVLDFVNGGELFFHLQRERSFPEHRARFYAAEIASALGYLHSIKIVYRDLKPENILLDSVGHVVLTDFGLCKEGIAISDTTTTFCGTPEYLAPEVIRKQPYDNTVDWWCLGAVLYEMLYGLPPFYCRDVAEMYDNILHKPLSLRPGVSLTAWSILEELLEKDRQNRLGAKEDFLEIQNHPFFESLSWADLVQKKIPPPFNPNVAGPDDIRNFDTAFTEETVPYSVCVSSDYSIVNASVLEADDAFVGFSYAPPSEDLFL

SRPK3 (human) = SRPK3 (human) (UniProt Q9UPE1)
STK4 (human) = STK4 (human) (UniProt Q13043)
TAOK1 (human) = TAOK1 (human) (UniProt Q7L7X3)
TEK (human) = TEK (human) (UniProt Q02763)
TTK (human) = TTK (human) (UniProt P33981)
TYRO3 (human) = TYRO3 (human) (UniProt Q06418)

Chain of CLK1 (human) (P49759 whole entry, looked up): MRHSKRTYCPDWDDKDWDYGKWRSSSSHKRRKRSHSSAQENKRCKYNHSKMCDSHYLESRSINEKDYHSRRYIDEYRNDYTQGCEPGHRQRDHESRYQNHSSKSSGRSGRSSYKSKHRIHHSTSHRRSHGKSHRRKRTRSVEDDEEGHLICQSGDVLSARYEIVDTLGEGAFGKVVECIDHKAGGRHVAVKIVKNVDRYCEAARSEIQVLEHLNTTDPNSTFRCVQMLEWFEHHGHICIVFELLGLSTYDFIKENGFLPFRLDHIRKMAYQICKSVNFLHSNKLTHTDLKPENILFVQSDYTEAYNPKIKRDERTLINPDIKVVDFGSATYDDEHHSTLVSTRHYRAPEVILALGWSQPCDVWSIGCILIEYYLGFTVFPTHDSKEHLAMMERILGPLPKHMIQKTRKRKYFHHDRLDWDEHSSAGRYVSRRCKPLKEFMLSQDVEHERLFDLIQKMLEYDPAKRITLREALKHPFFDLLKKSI

SMILES: Ic1cccc(CSc2nnc(-c3ccncc3)o2)c1
- residual activity (ABL1 (human)): 107%
- residual activity (ADRBK2 (human)): 103%
- residual activity (CAMK2D (human)): 96.8%
- residual activity (CLK1 (human)): 99.8%
- residual activity (CLK3 (human)): 76.3%
- residual activity (EPHA8 (human)): 91.5%
- residual activity (EPHB1 (human)): 101%
- residual activity (EPHB2 (human)): 87.7%
- residual activity (ERBB2 (human)): 99.6%
- residual activity (GRK5 (human)): 106%
- residual activity (GRK7 (human)): 112%
- residual activity (INSRR (human)): 98%
- residual activity (ITK (human)): 102%
- residual activity (LCK (human)): 98.5%
- residual activity (LTK (human)): 103%
- residual activity (MAP2K1 (human)): 95.4%
- residual activity (MAPKAPK5 (human)): 83.6%
- residual activity (MARK1 (human)): 111%
- residual activity (MST1R (human)): 104%
- residual activity (NEK11 (human)): 113%
- residual activity (NEK3 (human)): 86.9%
- residual activity (NEK7 (human)): 102%
- residual activity (NTRK1 (human)): 96%
- residual activity (PAK4 (human)): 83.6%
- residual activity (PASK (human)): 100%
- residual activity (PDPK1 (human)): 98.3%
- residual activity (PHKG1 (human)): 105%
- residual activity (PLK2 (human)): 101%
- residual activity (PRKCB2 (human)): 91.2%
- residual activity (PRKD1 (human)): 97.6%
- residual activity (PRKD2 (human)): 97.1%
- residual activity (PRKX (human)): 78.2%
- residual activity (ROCK2 (human)): 89%
- residual activity (RPS6KA3 KD1 KD2 (human)): 96.4%
- residual activity (RPS6KB1 (human)): 100%
- residual activity (SGK3 (human)): 98.5%
- residual activity (SRPK3 (human)): 101%
- residual activity (STK4 (human)): 102%
- residual activity (TAOK1 (human)): 101%
- residual activity (TEK (human)): 92.6%
- residual activity (TTK (human)): 103%
- residual activity (TYRO3 (human)): 103%

SMILES: COc1ccc(S(=O)(=O)N(CCO)c2ccccc2CN(C)C/C=C/c2ccc(Cl)cc2)cc1
- residual activity (ABL1 (human)): 100%
- residual activity (ADRBK2 (human)): 105%
- residual activity (CAMK2D (human)): 91.8%
- residual activity (CLK1 (human)): 96.4%
- residual activity (CLK3 (human)): 100%
- residual activity (EPHA8 (human)): 100%
- residual activity (EPHB1 (human)): 93.3%
- residual activity (EPHB2 (human)): 97.7%
- residual activity (ERBB2 (human)): 97.8%
- residual activity (GRK5 (human)): 94.1%
- residual activity (GRK7 (human)): 114%
- residual activity (INSRR (human)): 97%
- residual activity (ITK (human)): 97.1%
- residual activity (LCK (human)): 95.5%
- residual activity (LTK (human)): 97.9%
- residual activity (MAP2K1 (human)): 94.3%
- residual activity (MAPKAPK5 (human)): 100%
- residual activity (MARK1 (human)): 98.4%
- residual activity (MST1R (human)): 95.4%
- residual activity (NEK11 (human)): 105%
- residual activity (NEK3 (human)): 96.2%
- residual activity (NEK7 (human)): 93.4%
- residual activity (NTRK1 (human)): 110%
- residual activity (PAK4 (human)): 101%
- residual activity (PASK (human)): 103%
- residual activity (PDPK1 (human)): 93.7%
- residual activity (PHKG1 (human)): 95.4%
- residual activity (PLK2 (human)): 102%
- residual activity (PRKCB2 (human)): 102%
- residual activity (PRKD1 (human)): 100%
- residual activity (PRKD2 (human)): 99.8%
- residual activity (PRKX (human)): 104%
- residual activity (ROCK2 (human)): 94.6%
- residual activity (RPS6KA3 KD1 KD2 (human)): 98%
- residual activity (RPS6KB1 (human)): 103%
- residual activity (SGK3 (human)): 106%
- residual activity (SRPK3 (human)): 97.3%
- residual activity (STK4 (human)): 94.2%
- residual activity (TAOK1 (human)): 103%
- residual activity (TEK (human)): 105%
- residual activity (TTK (human)): 83.3%
- residual activity (TYRO3 (human)): 97.1%

SMILES: COc1ccc(Cl)cc1NC(=O)Nc1cc(C)nc2ccccc12
- residual activity (ABL1 (human)): 99.5%
- residual activity (ADRBK2 (human)): 103%
- residual activity (CAMK2D (human)): 98.2%
- residual activity (CLK1 (human)): 97.6%
- residual activity (CLK3 (human)): 97.5%
- residual activity (EPHA8 (human)): 97.8%
- residual activity (EPHB1 (human)): 102%
- residual activity (EPHB2 (human)): 93.2%
- residual activity (ERBB2 (human)): 99.7%
- residual activity (GRK5 (human)): 109%
- residual activity (GRK7 (human)): 101%
- residual activity (INSRR (human)): 100%
- residual activity (ITK (human)): 96%
- residual activity (LCK (human)): 98.2%
- residual activity (LTK (human)): 87.3%
- residual activity (MAP2K1 (human)): 101%
- residual activity (MAPKAPK5 (human)): 89.1%
- residual activity (MARK1 (human)): 102%
- residual activity (MST1R (human)): 82.4%
- residual activity (NEK11 (human)): 94.6%
- residual activity (NEK3 (human)): 114%
- residual activity (NEK7 (human)): 103%
- residual activity (NTRK1 (human)): 92.5%
- residual activity (PAK4 (human)): 77.9%
- residual activity (PASK (human)): 97.6%
- residual activity (PDPK1 (human)): 83.9%
- residual activity (PHKG1 (human)): 102%
- residual activity (PLK2 (human)): 102%
- residual activity (PRKCB2 (human)): 109%
- residual activity (PRKD1 (human)): 96.6%
- residual activity (PRKD2 (human)): 99.8%
- residual activity (PRKX (human)): 98%
- residual activity (ROCK2 (human)): 96.7%
- residual activity (RPS6KA3 KD1 KD2 (human)): 96.2%
- residual activity (RPS6KB1 (human)): 96%
- residual activity (SGK3 (human)): 108%
- residual activity (SRPK3 (human)): 104%
- residual activity (STK4 (human)): 98.7%
- residual activity (TAOK1 (human)): 103%
- residual activity (TEK (human)): 96.8%
- residual activity (TTK (human)): 103%
- residual activity (TYRO3 (human)): 98.9%

SMILES: COc1cc2ncnc(Nc3ccc(OCc4ccccc4)cc3)c2cc1OC
- residual activity (ABL1 (human)): 98%
- residual activity (ADRBK2 (human)): 99.6%
- residual activity (CAMK2D (human)): 95.8%
- residual activity (CLK1 (human)): 111%
- residual activity (CLK3 (human)): 98.2%
- residual activity (EPHA8 (human)): 102%
- residual activity (EPHB1 (human)): 101%
- residual activity (EPHB2 (human)): 93.9%
- residual activity (ERBB2 (human)): 42.6%
- residual activity (GRK5 (human)): 105%
- residual activity (GRK7 (human)): 101%
- residual activity (INSRR (human)): 99.9%
- residual activity (ITK (human)): 96.2%
- residual activity (LCK (human)): 42.2%
- residual activity (LTK (human)): 98.6%
- residual activity (MAP2K1 (human)): 94.7%
- residual activity (MAPKAPK5 (human)): 100%
- residual activity (MARK1 (human)): 103%
- residual activity (MST1R (human)): 106%
- residual activity (NEK11 (human)): 90.4%
- residual activity (NEK3 (human)): 99.1%
- residual activity (NEK7 (human)): 101%
- residual activity (NTRK1 (human)): 97.1%
- residual activity (PAK4 (human)): 103%
- residual activity (PASK (human)): 98.6%
- residual activity (PDPK1 (human)): 103%
- residual activity (PHKG1 (human)): 100%
- residual activity (PLK2 (human)): 109%
- residual activity (PRKCB2 (human)): 106%
- residual activity (PRKD1 (human)): 101%
- residual activity (PRKD2 (human)): 101%
- residual activity (PRKX (human)): 105%
- residual activity (ROCK2 (human)): 96%
- residual activity (RPS6KA3 KD1 KD2 (human)): 103%
- residual activity (RPS6KB1 (human)): 95.1%
- residual activity (SGK3 (human)): 105%
- residual activity (SRPK3 (human)): 92.8%
- residual activity (STK4 (human)): 101%
- residual activity (TAOK1 (human)): 94.4%
- residual activity (TEK (human)): 97.9%
- residual activity (TTK (human)): 96.8%
- residual activity (TYRO3 (human)): 86.9%
